According to patent publication US20210220300A1 (Strongbridge Dublin Limited, priority 2019, published 2021):
Read-outs that look alike come from different tables or passages of the source. Each block holds one molecule with its values, some of them ahead of it.

What was measured:
[1] = target: T1, MATE1 (Homo sapiens, UniProt Q96FL8); settings: pH 8.5
T1 sequence (Q96FL8 1-570): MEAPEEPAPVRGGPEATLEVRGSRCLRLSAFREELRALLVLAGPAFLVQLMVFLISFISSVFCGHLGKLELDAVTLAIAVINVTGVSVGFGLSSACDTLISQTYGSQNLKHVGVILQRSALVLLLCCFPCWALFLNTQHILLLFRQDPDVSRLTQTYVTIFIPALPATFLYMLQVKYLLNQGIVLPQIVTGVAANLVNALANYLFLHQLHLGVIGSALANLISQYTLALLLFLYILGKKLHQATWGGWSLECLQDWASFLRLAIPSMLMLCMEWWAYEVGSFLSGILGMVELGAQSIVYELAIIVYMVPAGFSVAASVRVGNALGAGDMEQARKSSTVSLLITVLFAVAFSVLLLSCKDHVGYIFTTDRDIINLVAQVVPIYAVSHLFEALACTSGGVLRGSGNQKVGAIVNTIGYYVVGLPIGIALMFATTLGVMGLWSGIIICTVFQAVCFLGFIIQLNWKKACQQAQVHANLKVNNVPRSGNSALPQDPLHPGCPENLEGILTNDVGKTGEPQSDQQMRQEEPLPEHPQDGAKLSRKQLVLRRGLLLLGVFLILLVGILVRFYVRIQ
Procedure: (§1) [^14C]-Metformin (1 mM) was provided as a solid and was prepared in Hank's balanced salt solution (HBSS).
(§2) Cells were plated onto standard 24-well tissue culture plates in cell culture medium 1 to 3 days before the experiment. MATE1 and MATE2-K and control cells were incubated with butyric acid (10 mM) for 24 hours before the experiment to inhibit suppression of the transporter.

[2] = target: MATE2-K (Homo sapiens, UniProt Q86VL8); settings: pH 8.5
MATE2-K, sequence (Q86VL8 1-566 isoform Q86VL8-3): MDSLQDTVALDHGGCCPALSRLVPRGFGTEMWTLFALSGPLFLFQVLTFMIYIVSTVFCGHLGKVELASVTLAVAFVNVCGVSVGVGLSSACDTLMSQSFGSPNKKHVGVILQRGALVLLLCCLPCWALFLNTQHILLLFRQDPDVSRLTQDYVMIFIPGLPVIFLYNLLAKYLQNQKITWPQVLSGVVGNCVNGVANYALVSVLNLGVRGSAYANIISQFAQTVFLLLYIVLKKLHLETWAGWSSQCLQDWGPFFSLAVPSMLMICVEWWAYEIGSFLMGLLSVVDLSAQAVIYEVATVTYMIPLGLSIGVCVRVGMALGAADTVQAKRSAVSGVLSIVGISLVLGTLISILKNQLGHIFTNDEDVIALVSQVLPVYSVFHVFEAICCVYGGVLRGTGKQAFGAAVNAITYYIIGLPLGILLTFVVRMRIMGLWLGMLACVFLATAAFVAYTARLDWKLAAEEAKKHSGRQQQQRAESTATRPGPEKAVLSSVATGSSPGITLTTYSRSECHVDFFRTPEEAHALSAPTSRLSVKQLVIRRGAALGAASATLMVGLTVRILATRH
Procedure: as §1, §2

[3] = tested on: BCRP; test: BCRP inhibition: bidirectional transport of prazosin across MDCKII BCRP and control cells; settings: for % control: corrected efflux ratio, prazosin 1 μM
Excerpt: MDCKII P-gp, MDCKII BCRP and control MDCKII cells were purchased from the Netherlands Cancer Institute.

[4] = target: T2, OCT1 (Homo sapiens, UniProt O15245); settings: for Uptake (Average ± SD), Control / Uptake (Average ± SD), OCT1 / Background corrected uptake rate: human, pH 7.4
T2 sequence (O15245 1-554): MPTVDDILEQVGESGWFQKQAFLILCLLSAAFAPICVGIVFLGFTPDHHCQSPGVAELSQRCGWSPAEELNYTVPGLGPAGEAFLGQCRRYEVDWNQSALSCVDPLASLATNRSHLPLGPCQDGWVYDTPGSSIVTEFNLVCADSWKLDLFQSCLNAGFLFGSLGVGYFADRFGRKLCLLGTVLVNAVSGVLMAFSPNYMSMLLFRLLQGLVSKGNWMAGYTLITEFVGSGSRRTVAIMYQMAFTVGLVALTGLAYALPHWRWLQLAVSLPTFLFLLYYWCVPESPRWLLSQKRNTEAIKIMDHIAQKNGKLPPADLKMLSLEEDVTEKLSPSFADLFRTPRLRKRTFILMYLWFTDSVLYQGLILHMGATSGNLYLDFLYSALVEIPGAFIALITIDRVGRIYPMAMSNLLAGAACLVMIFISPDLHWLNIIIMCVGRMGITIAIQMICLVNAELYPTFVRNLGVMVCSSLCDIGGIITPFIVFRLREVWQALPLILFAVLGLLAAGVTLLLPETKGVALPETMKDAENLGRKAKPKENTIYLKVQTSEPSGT
Procedure: as §1, §2

[5] = target: T3, P-gp (Homo sapiens, UniProt P08183)
T3 sequence (P08183 whole entry): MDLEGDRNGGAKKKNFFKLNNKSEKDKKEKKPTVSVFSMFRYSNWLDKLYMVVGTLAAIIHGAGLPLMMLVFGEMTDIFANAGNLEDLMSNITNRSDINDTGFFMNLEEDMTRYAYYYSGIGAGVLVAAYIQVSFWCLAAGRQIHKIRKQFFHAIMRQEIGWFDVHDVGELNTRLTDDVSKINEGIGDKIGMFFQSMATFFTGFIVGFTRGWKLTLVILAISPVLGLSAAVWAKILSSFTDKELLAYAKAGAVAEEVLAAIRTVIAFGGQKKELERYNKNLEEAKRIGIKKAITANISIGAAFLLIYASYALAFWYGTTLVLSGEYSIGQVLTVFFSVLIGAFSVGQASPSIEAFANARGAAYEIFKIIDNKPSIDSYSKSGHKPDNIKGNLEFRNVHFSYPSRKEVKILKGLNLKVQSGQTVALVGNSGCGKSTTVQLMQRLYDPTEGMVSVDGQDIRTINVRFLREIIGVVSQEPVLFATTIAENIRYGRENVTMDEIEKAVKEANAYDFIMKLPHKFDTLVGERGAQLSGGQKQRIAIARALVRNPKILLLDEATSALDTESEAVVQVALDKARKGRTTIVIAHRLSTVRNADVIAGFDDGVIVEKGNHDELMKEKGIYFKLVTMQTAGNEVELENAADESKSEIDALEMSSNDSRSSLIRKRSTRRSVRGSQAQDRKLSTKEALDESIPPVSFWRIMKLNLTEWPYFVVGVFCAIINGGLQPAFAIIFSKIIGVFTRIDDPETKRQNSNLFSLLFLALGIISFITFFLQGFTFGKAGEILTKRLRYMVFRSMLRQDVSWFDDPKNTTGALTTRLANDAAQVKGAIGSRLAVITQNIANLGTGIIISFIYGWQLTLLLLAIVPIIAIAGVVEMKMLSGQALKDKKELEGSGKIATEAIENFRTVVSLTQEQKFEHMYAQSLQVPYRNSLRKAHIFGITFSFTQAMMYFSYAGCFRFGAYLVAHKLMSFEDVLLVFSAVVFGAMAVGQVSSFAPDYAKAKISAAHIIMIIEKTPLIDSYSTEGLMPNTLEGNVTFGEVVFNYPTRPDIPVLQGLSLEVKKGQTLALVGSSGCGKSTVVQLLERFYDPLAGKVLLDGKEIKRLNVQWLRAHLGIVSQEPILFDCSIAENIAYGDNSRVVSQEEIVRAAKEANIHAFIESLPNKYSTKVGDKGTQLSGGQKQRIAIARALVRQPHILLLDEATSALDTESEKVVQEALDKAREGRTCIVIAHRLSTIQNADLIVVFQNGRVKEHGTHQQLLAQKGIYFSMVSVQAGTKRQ

[6] = cited from earlier work
[7] = cited from earlier work; remark: listed apart in the source
[8] = target: T3, P-gp; test: P-gp inhibition: bidirectional transport of digoxin across Caco-2 cells

Background corrected uptake rate ([1]; 0.1 μM): 11.7 pmol/mg/min | Uptake (Average ± SD), Control ([1]; 0.1 μM): 4.24 ± 0.72 pmol/mg protein | Uptake (Average ± SD), MATE1 ([1]; 0.1 μM): 62.8 ± 4.0 pmol/mg protein | Background corrected uptake rate ([2]; 0.3 μM): 14.0 pmol/mg/min | Uptake (Average ± SD), Control ([2]; 0.3 μM): 5.59 ± 0.88 pmol/mg protein | Uptake (Average ± SD), MATE2-K ([2]; 0.3 μM): 75.6 ± 16.7 pmol/mg protein
Compound: CCc1nc(N)nc(N)c1-c1ccc(Cl)cc1 [Pyrimethamine]

Papp A:B of digoxin (Average ± SD) [8]: 9.12 ± 1.34 × 10^−6 cm/sec | Papp B:A of digoxin (Average ± SD) [8]: 10.0 ± 2.5 × 10^−6 cm/sec
Compound: C/C=C/C[C@@H](C)C(=O)[C@H]1C(=O)N[C@@H](C(C)C)C(=O)N(C)CC(=O)N(C)[C@@H](CC(C)C)C(=O)N[C@@H](C(C)C)C(=O)N(C)[C@@H](CC(C)C)C(=O)N[C@@H](C)C(=O)N[C@H](C)C(=O)N(C)[C@@H](CC(C)C)C(=O)N(C)[C@@H](CC(C)C)C(=O)N(C)[C@@H](C(C)C)C(=O)N1C [Valspodar]

Continued, molecule first:

Compound: CN/C(=N/CCSCc1nc[nH]c1C)NC#N [Cimetidine]
Uptake (Average ± SD), Control ([1]; 10 μM): 5.20 ± 0.63 pmol/mg protein | Uptake (Average ± SD), MATE1 ([1]; 10 μM): 85.2 ± 7.8 pmol/mg protein | Uptake (Average ± SD), Control ([2]; 300 μM): 7.34 ± 0.20 pmol/mg protein | Uptake (Average ± SD), MATE2-K ([2]; 300 μM): 32.3 ± 11.7 pmol/mg protein

Compound: NS(=O)(=O)c1cc(Cl)c(Cl)c(S(N)(=O)=O)c1 [Dichlorphenamide, 4,5-dichloro-1,3-benzenedisulfonamide]
% control ([3]; inhibitor 1000 μM): 60.0% | Control cells Recovery (%) A:B ([3]; dog, MDCK, 120 min, 1000 μM): 84.7% | Control cells Recovery (%) B:A ([3]; dog, MDCK, 120 min, 1000 μM): 77.0% | MDCKII-BCRP cells Recovery (%) A:B ([3]; human, 120 min, 1000 μM): 93.0% | MDCKII-BCRP cells Recovery (%) B:A ([3]; human, 120 min, 1000 μM): 83.7% | Uptake (Average ± SD), Control ([1]; 1 μM): 6.66 ± 1.31 pmol/mg protein | Uptake (Average ± SD), MATE1 ([1]; 1 μM): 436 ± 23 pmol/mg protein | Uptake (Average ± SD), Control ([1]; 3 μM): 6.75 ± 1.65 pmol/mg protein | Uptake (Average ± SD), MATE1 ([1]; 3 μM): 401 ± 7 pmol/mg protein | Uptake (Average ± SD), Control ([1]; 10 μM): 7.43 ± 1.34 pmol/mg protein | Uptake (Average ± SD), MATE1 ([1]; 10 μM): 406 ± 12 pmol/mg protein | Uptake (Average ± SD), Control ([1]; 30 μM): 6.79 ± 0.89 pmol/mg protein | Uptake (Average ± SD), MATE1 ([1]; 30 μM): 432 ± 10 pmol/mg protein | Uptake (Average ± SD), Control ([1]; 100 μM): 7.52 ± 0.96 pmol/mg protein | Uptake (Average ± SD), MATE1 ([1]; 100 μM): 421 ± 17 pmol/mg protein | Uptake (Average ± SD), Control ([1]; 300 μM): 5.56 ± 0.16 pmol/mg protein | Uptake (Average ± SD), MATE1 ([1]; 300 μM): 398 ± 17 pmol/mg protein | Uptake (Average ± SD), Control ([1]; 1000 μM): 5.52 ± 0.21 pmol/mg protein | Uptake (Average ± SD), MATE1 ([1]; 1000 μM): 379 ± 13 pmol/mg protein | Uptake (Average ± SD), Control ([2]; 1 μM): 9.21 ± 0.93 pmol/mg protein | Uptake (Average ± SD), MATE2-K ([2]; 1 μM): 149 ± 29 pmol/mg protein | Uptake (Average ± SD), Control ([2]; 3 μM): 9.44 ± 2.27 pmol/mg protein | Uptake (Average ± SD), MATE2-K ([2]; 3 μM): 159 ± 19 pmol/mg protein | Uptake (Average ± SD), Control ([2]; 10 μM): 8.28 ± 1.46 pmol/mg protein | Uptake (Average ± SD), MATE2-K ([2]; 10 μM): 113 ± 8 pmol/mg protein | Uptake (Average ± SD), Control ([2]; 30 μM): 8.51 ± 1.05 pmol/mg protein | Uptake (Average ± SD), MATE2-K ([2]; 30 μM): 124 ± 36 pmol/mg protein | Uptake (Average ± SD), Control ([2]; 100 μM): 9.21 ± 1.52 pmol/mg protein | Uptake (Average ± SD), MATE2-K ([2]; 100 μM): 137 ± 15 pmol/mg protein | Uptake (Average ± SD), Control ([2]; 300 μM): 8.86 ± 0.93 pmol/mg protein | Uptake (Average ± SD), MATE2-K ([2]; 300 μM): 166 ± 16 pmol/mg protein | Uptake (Average ± SD), Control ([2]; 1000 μM): 5.13 ± 0.40 pmol/mg protein | Uptake (Average ± SD), MATE2-K ([2]; 1000 μM): 106 ± 29 pmol/mg protein | % control ([4]; [14C]-tetraethylammonium bromide 5 μM, inhibitor 10 μM): 90.6% | Uptake (Average ± SD), Control ([4]; 1 μM): 4.28 ± 1.48 pmol/mg protein | Uptake (Average ± SD), OCT1 ([4]; 1 μM): 121 ± 11 pmol/mg protein | Uptake (Average ± SD), Control ([4]; 3 μM): 4.44 ± 1.97 pmol/mg protein | Uptake (Average ± SD), OCT1 ([4]; 3 μM): 125 ± 5 pmol/mg protein | Uptake (Average ± SD), Control ([4]; 10 μM): 4.28 ± 0.92 pmol/mg protein | Uptake (Average ± SD), OCT1 ([4]; 10 μM): 111 ± 4 pmol/mg protein | Uptake (Average ± SD), Control ([4]; 30 μM): 3.88 ± 0.48 pmol/mg protein | Uptake (Average ± SD), OCT1 ([4]; 30 μM): 122 ± 14 pmol/mg protein | Uptake (Average ± SD), Control ([4]; 100 μM): 4.12 ± 0.73 pmol/mg protein | Uptake (Average ± SD), OCT1 ([4]; 100 μM): 128 ± 6 pmol/mg protein | Background corrected uptake rate ([4]; 300 μM): 8.40 pmol/mg/min | Uptake (Average ± SD), Control ([4]; 300 μM): 3.88 ± 1.11 pmol/mg protein | Uptake (Average ± SD), OCT1 ([4]; 300 μM): 130 ± 10 pmol/mg protein | Background corrected uptake rate ([4]; 1000 μM): 5.00 pmol/mg/min | Uptake (Average ± SD), Control ([4]; 1000 μM): 2.99 ± 1.46 pmol/mg protein | Uptake (Average ± SD), OCT1 ([4]; 1000 μM): 77.9 ± 3.0 pmol/mg protein | Papp A:B of digoxin (Average) ([5]; Caco-2): 0.337 (n = 2) × 10^−6 cm/sec | % control ([5]; human, 120 min, 3 μM): 74.0% | Solubility in dilute solutions of sodium carbonate and sodium hydroxide [6]: soluble | Storage stability [7]: at least 36 months

Compound: Cc1cccc(C)c1OCC(=O)N[C@@H](Cc1ccccc1)[C@@H](O)C[C@H](Cc1ccccc1)NC(=O)[C@H](C(C)C)N1CCCNC1=O [Lopinavir]
% control ([3]; inhibitor 30 μM): 0%

Compound: C=C[C@H]1C[N@@]2CC[C@H]1C[C@@H]2[C@@H](O)c1ccnc2ccc(OC)cc12 [Quinidine]
Background corrected uptake rate ([4]; 100 μM): 1.64 pmol/mg/min
